Experimental data: US20260274857A1, “CRYSTAL OF DIHYDROPYRIDINONE DERIVATIVE OR SOLVATE THEREOF” (Shionogi & Co., Ltd., priority 2022, published 2026)

What was measured:
Type in all cases: physicochemical
[1] = Powder solubility test (JP-1, JP-2, TCA/JP2); details: 37° C., 1 hour; for JP1 solubility: JP-1 solution; for TCA/JP2 solubility: JP-2 solution added with taurocholic acid; for JP2 solubility: JP-2 solution
Protocol: The solubility of the crystal of the present invention was evaluated with respect to the solubility when JP-1 solution, JP-2 solution, and JP-2 solution added with taurocholic acid (TCA/JP2) were used as a measurement medium. Evaluation was performed at a dissolved concentration (μg/mL) by an HPLC method.
About 1 mg of the crystal of the present invention was weighed in a 4 mL glass container, and 2 mL of JP-2 solution (1000 mL of water was added to 1.70 g of potassium dihydrogen phosphate and 1.775 g of anhydrous disodium hydrogen phosphate) was added to each container. The mixture was sealed with a polyethylene stopper with Teflon and silicone packing, shaken at 37° C. for 1 hour, and then filtered, and 400 μL of methanol was added to 800 μL of the filtrate to perform 1.5 fold dilution. Whether there were bubbles and precipitates was confirmed, and the compound of the crystal of the present invention was quantified using HPLC by an absolute calibration curve method to calculate the solubility.

[2] = Moisture adsorption/desorption isotherm measurement (DVS); details: DVS, 25° C.
Source text: The moisture adsorption/desorption isotherm measurement is a measurement method for measuring the adsorption and desorption behavior of moisture by measuring a weight change in a solid as a measurement target under each relative humidity condition.
As a basic measurement method, based on the dry weight at 0% RH (relative humidity 0%), the relative humidity is increased every 5% or 10%, and after the weight is stabilized at each relative humidity, the amount of adsorbed water can be determined from the weight increase from the reference value. Similarly, the desorption amount of water can be measured by decreasing the relative humidity every 5% or 10% from 100% RH or 95% RH.
By plotting the value of the weight change at each relative humidity, an adsorption/desorption isotherm can be obtained.
Sorption and desorption of adhesion water and crystal water are affected by particle size, crystallinity, crystal habit, and the like, so that the measurement results may slightly change.
The crystals and amorphous substances obtained in each Example were weighed in an aluminum pan, and allowed to stand at 25° C. and a relative humidity of 0%. The measurement was started after the compound was sufficiently dried and the weight was stabilized, and the weight when the relative humidity changed from 0% to 95% by 5% was recorded. Next, the weight when the relative humidity changed from 95% to 0% by 5% was recorded.
Device: DVS Advantage manufactured by Surface Measurement Systems

[3] = Test Example 2: solid stability, 40° C. 89% RH 3 months, amount of analogous substance
Protocol: The crystal and amorphous substance of the compound represented by Formula (I) obtained in Example 1 were stored (40° C., 89% RH 3M) in a hermetically sealed container at 40° C. and a relative humidity of 89% for 3 months, and subjected to a solid stability test to evaluate the amount of an analogous substance.
The crystal or amorphous substance of the compound represented by Formula (I) obtained in Example 1 was dissolved in an acetonitrile aqueous solution (acetonitrile:water=1:1) to prepare a sample solution to be exactly 500 μg/mL.
The purity and the amount of the analogous substance were measured by an area percentage method under the HPLC conditions 1 described in Test Example 1.
The results of the crystal and amorphous substance of the compound represented by Formula (I) obtained in Example 1 are described in the following table. Impurities detected at a retention time (RT, retention time) of 17.527 minutes indicate an increase amount with respect to a standard product.

`Cc1ccc(-n2nc3c(c2NC(=O)CS(C)(=O)=O)C(=O)NC2(CCOc4cc(F)cc(F)c42)C3)nc1` (centres unmarked) [Compound crystal of Formula (I)] showed a JP1 solubility [1] of 59.4 µg/mL, a TCA/JP2 solubility [1] of 143.1 µg/mL and a JP2 solubility [1] of 74.1 µg/mL.

`CS(=O)(=O)CC(=O)Nc1c2c(nn1CCCOC(F)(F)F)CC1(CCOc3cc(OCC(F)(F)F)ccc31)NC2=O` (centres unmarked) [Compound crystal of Formula (II)] gave a JP1 solubility [1] of 33.6 µg/mL, a TCA/JP2 solubility [1] of 73.6 µg/mL and a JP2 solubility [1] of 37.5 µg/mL.

In the case of `Cc1ccc(-n2nc3c(c2NC(=O)CS(C)(=O)=O)C(=O)N[C@@]2(CCOc4cc(F)cc(F)c42)C3)nc1` [amorphous substance of the compound represented by Formula (], the “difference in water content between 0% RH and 95% RH” value [2] is reported as “about 7.0%” and the “impurities detected at a retention time of 17.527 minutes, increase with respect to standard product (in words)” value [3] is reported as “greatly increased”.
